The values below come from patent US5863776A, “Method of preparing apoenzyme” (Research Development Foundation, priority 1996, dated 1999).

Experiment [1] deals with L-gulono-g-lactone oxidase. The settings on record: cited from earlier work.
Experiment [2] addresses T1, MAO B (Homo sapiens, UniProt P27338).
T1 construct: expressed in transfected cells; host or cells: COS-7 (African green monkey), riboflavin-containing (Rib+) or riboflavin-depleted (Rib-), transient electroporation
T1 sequence (P27338 1-520): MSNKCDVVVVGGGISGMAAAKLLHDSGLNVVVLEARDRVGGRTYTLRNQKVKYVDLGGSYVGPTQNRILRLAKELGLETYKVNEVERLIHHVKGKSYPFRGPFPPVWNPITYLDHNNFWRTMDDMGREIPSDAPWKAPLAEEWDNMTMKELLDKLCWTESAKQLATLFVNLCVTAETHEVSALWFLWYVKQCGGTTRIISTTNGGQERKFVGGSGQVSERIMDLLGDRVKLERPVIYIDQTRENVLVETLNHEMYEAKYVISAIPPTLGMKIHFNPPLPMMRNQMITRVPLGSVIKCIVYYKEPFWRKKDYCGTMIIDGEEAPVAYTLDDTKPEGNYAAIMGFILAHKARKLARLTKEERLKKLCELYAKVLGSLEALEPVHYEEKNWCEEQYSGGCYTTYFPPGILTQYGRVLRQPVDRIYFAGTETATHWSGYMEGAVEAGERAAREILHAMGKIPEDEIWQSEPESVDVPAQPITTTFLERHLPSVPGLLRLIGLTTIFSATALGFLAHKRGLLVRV
In words: FAD coupling in vitro (flavinylation assay in cell lysate, 30° C.). The class given is biochemical. The settings on record: 30° C. How it is done: (- - - x - - - ). […] The enzymatic activity of each sample was determined at 1 hour time intervals using [^14 C] benzylamine as substrate.
Apo-MAO B was obtained by expressing MAO B cDNA in Rib^- COS-7 cells. The cells were then harvested and homogenized as described above. One half of the lysate was stirred in the presence of 0.25% Triton X-100 at 4° C. for 50 min. to extract apo-MAO B from the outer mitochondrial membrane. The second half of the lysate was not extracted with Triton X-100 to permit MAO B to remain in the membrane. […] Assays were also carried out in the presence of an energy mixture (10 mM ATP, 32 mM PEP and 2.4 μg pyruvate kinase) and 25% glycerol in the reaction vials. Each sample was run in triplicate. After 1, 2 or 3 hours incubation at 30° C., each sample was assayed for MAO B activity as described below.
(§1) MAO B activity was assayed radiometrically by a modification of the method of Wurtman and Axelrod (26) as described previously (18). Briefly, the reaction mixture contained 200 μl of 50 mM sodium phosphate buffer (pH 7.4), 3.6 nmole of 55 mCi/mmol [^14 C] benzylamine hydrochloride (Amersham), 10 nmoles of unlabeled benzylamine and 10 μl of cell lysate. Samples were run in triplicate, and one out of each set was denatured with […] of 6N HCl prior to the addition of substrate to serve as an internal control. All reactions were incubated for 9 minutes at 37° C., and terminated by the addition of 25 μl of 6N HCl. The reaction product was extracted with 500 μl of toluene, and an aliquot (200 μl) of the organic phase from each sample was counted in liquid scintillation fluid (Bio-Safe) in a Beckman LB 3801 scintillation counter.

The target of experiment [3] is T1, MAO B. The experiment in a line: Quantitation of expressed MAO B protein by ELISA in transfected COS-7 cells. The class given is cell-based. Also noted: MAO B Expressed: unit not given here. The settings on record: cofactor added with MAO B cDNA into Rib^- COS-7 cells; 48 hours; mean ± SE, three experiments. How it is done: Total protein concentrations of samples containing MAO B holoenzyme, apoenzyme, or variant MAO Bs were determined by a MicroBCA kit (Pierce). All samples were then adjusted to equal protein concentrations and assayed for MAO B protein by ELISA using a modification of the method of Yeomanson and Billett (25) as described previously (18).
MAO B cDNA was expressed sequentially at different time intervals in these cells during this riboflavin depletion process (FIG. 2). Each data point in FIG. 2 represents an individual expression assay. For each assay, a sample of COS-7 cells grown in riboflavin-free medium were transfected with MAO B cDNA via electroporation. Concurrently, Rib^+ COS-7 cells were transfected with MAO B cDNA to serve as a control. Following incubation for 48 hours, the cells were homogenized and assays were performed to determine protein concentration, MAO B concentration by ELISA using polyclonal antibodies, and MAO B activity using [^14 C] benzylamine.
An equal amount of MAO B cDNA (15 μg) was expressed in both types of […]

Experiment [4] deals with T1, MAO B. In words: FAD coupling in intact cells: MAO B enzymatic activity after electroporation of MAO B cDNA with cofactor into Rib^- COS-7 cells ([^14 C] benzylamine substrate). The class given is cell-based. Also noted: Percent of Holo-MAO B Activity: concentration or dose not given beside the values. The procedure: (§2) Wild-type or mutant MAO B cDNAs were transiently transfected into COS-7 cells by electroporation (23) as previously described (18). Briefly, Rib^+ - or Rib^- COS-7 cells were harvested during late log phase growth and resuspended to a concentration of 3.1×10^6 cells/ml in either riboflavin-containing or riboflavin-free medium, respectively. Wild-type or mutant MAO B cDNAs ([…]) were added to 0.8 ml of cell suspension. […] Electroporation was carried out in a Bio-Rad Gene Pulser with a setting of 250 V and 500 μF. Cells were resuspended in 15 ml of riboflavin-containing or riboflavin-free medium and incubated at 37° C. with 5% CO2. Transfected COS-7 cells were harvested at 48 hours and homogenized in a lysis solution containing 20 mM Tris-HCl, 1 mM EDTA, 0.5 mM PMSF, pH 8.0. The homogenate was diluted with an equal volume of the same buffer supplemented with 300 mM NaCl to obtain a 150 mM final NaCl concentration. Triton X-100 (Pierce) was added to the lysate to give a final concentration of 0.25%, and the samples were allowed to stir for 50 min. at 4° C. to extract MAO B from the outer mitochondrial membrane. After Triton extraction, the lysate was centrifuged at 1300×g for 5 min. at 4° C. to remove insoluble cell debris.
as §1
FMN or riboflavin were also capable of restoring approximately 75% of MAO B holoenzyme activity. However, only 40% of MAO B holoenzyme activity was obtained by the addition of 8α-hydroxyriboflavin.
Various cofactors were added with MAO B cDNA into Rib^- COS7 cells

In experiment [5] the test system is MAO B. The experiment in a line: [^14 C] FAD incorporation into wild-type or mutant MAO B in Rib^- COS-7 cells (immunoprecipitation, fluorography). The class given is binding, human. The settings on record: about 59 kDa; equal MAO B concentrations. The procedure:
Mutagenesis was carried out by the method of Deng and Nickoloff (22) using a Transformer Site-directed Mutagenesis kit (Clontech). Glu in position 34 was replaced with Asp (E34D), Gln (E34Q), or Ala (E34A), and Val in position 10 was replaced with Ile (V10I) as described by Kwan et al. (18).
as §2
Transfected Rib^+ - or Rib^- COS-7 cells were homogenized, and extracted with 0.25% Triton X-100 for 50 minutes at 4° C. The cell lysates were centrifuged at 1300×g for 5 minutes, and an aliqout of each supernatant was analyzed for MAO B concentration by ELISA. All supernatants were then adjusted to equal MAO B concentration and incubated with polyclonal goat anti-MAO B antibody (10 μg) overnight at 4° C. Protein-G Sepharose beads (Pierce) were added (50 μl) and incubation was continued for 3 hours. The protein-G Sepharose/goat antibody/MAO B immmunocomplex was collected by centrifugation at 10,000×g for 20 seconds and washed 6 times with 150 μl of 20 mM Tris buffer, pH 8.0. The immunocomplex was then dissolved in SDS-PAGE sample buffer and analyzed by Western blot or fluorography.
The immunoprecipitated proteins (obtained as described above) were subjected to electrophoresis in a 10% SDS-polyacrylamide gel and examined by Western blotting as previously described (18). The immunoprecipitated proteins (obtained as described above) were subjected to electrophoresis in a 10% SDS-polyacrylamide gel. The SDS-PAGE gel was fixed by soaking in 7% acetic acid, 10% methanol, 83% H2 O for 1 hour, and then processed for fluorography as described by Bonner and Laskey (27). The dried gel was exposed to Kodak X-OMAT AR film at -80° C. for 2 weeks.
The expressed wild-type and variant MAO Bs were adjusted to equal concentrations using ELISA before immunoprecipitation, and then analyzed by fluorography. The amount of incorporation of [^14 C] […] FAD was incorporated into the enzyme.

The subject of experiment [6] is MAO B. To be noted: mutation at Glu^34; cited from earlier work.

Substitutions are numbered along the chain they refer to. Numbers in names are those of the source. Entries after “also recorded” stand apart in the source; their conditions may differ.

Regarding `Cc1cc2nc3c(=O)[nH]c(=O)nc-3n(C[C@H](O)[C@H](O)[C@H](O)COP(=O)(O)OP(=O)(O)OC[C@H]3O[C@@H](n4cnc5c(N)ncnc54)[C@H](O)[C@@H]3O)c2cc1C` [FAD], in experiment [1], the “covalently bound FAD” value is “no covalently bound FAD could be obtained” and the “enzymatic activity upon addition of FAD” value was “Enzymatic activity was observed”. In experiment [2] (Triton extracted or non-extracted lysate), the “MAO B catalytic activity after adding exogenous FAD to apo-MAO B” value was “no MAO B catalytic activity was observed; also recorded: MAO B activity could not be regenerated”. Besides, the “MAO B activity after adding exogenous FAD to apo-MAO B” value in experiment [2] (with energy mixture and glycerol) is given as “no MAO B activity was obtained; also recorded: unsuccessful”. Also, the “MAO B Expressed” value in experiment [3] is on record as 0.86 ± 0.03. Besides, the “restoration of active MAO B (in words)” value in experiment [4] (cofactor added with MAO B cDNA during electroporation) is recorded as “equal levels of MAO B activity; also recorded: active MAO B (containing FAD) was obtained”. Also, the “Enzymatic Activity” value in experiment [4] (cofactor added with MAO B cDNA into Rib^- COS-7 cells, 48 hours, mean ± SE, three experiments) is given as 0.85 ± 0.01 μmol benzylamine/minute/mg MAO. For the same molecule, in experiment [4] (relative to holo-MAO B expressed in Rib^+ COS-7 cells, 2880 min), the “Percent of Holo-MAO B Activity” value was roughly 75%.

B1: E34A: MAO B with Glu in position 34 replaced with Ala (protein, UniProt P27338 2-520, looked up, variant E34A)
Amine oxidase …: SNKCDVVVVGGGISGMAAAKLLHDSGLNVVVLAARDRVGGRTYTLRNQKVKYVDLGGSYVGPTQNRILRLAKELGLETYKVNEVERLIHHVKGKSYPFRGPFPPVWNPITYLDHNNFWRTMDDMGREIPSDAPWKAPLAEEWDNMTMKELLDKLCWTESAKQLATLFVNLCVTAETHEVSALWFLWYVKQCGGTTRIISTTNGGQERKFVGGSGQVSERIMDLLGDRVKLERPVIYIDQTRENVLVETLNHEMYEAKYVISAIPPTLGMKIHFNPPLPMMRNQMITRVPLGSVIKCIVYYKEPFWRKKDYCGTMIIDGEEAPVAYTLDDTKPEGNYAAIMGFILAHKARKLARLTKEERLKKLCELYAKVLGSLEALEPVHYEEKNWCEEQYSGGCYTTYFPPGILTQYGRVLRQPVDRIYFAGTETATHWSGYMEGAVEAGERAAREILHAMGKIPEDEIWQSEPESVDVPAQPITTTFLERHLPSVPGLLRLIGLTTIFSATALGFLAHKRGLLVRV
For B1, in experiment [5], the “[^14 C] FAD incorporation (band on fluorogram)” value is reported as “did not exhibit bands”. Besides, the “loss of activity (in words)” value in experiment [6] was “complete loss of activity; also recorded: devoid of enzymatic activity”.

B2: E34Q: MAO B with Glu in position 34 replaced with Gln (protein, UniProt P27338 2-520, looked up, variant E34Q)
Amine oxidase …: B1 Amine oxidase … with A33Q
With B2, the “[^14 C] FAD incorporation (band on fluorogram)” value in experiment [5] is “did not exhibit bands”. The “loss of activity (in words)” value in experiment [6] is on record as “complete loss of activity; also recorded: devoid of enzymatic activity”.
